{
  "source": "patent US9849212B2",
  "about": "“Implants for inducing soft and hard tissue integration” (NUMAT BIOMEDICAL S.L., priority 2013, dated 2017)",
  "type_in_all_cases": "physicochemical",
  "key": {"[1]": {"test": "Flavonoid release profile by UV-Vis spectroscopy, simulating HGF culture media changes", "conditions": "water pH 7.5, 37° C.", "procedure": "(§1) The flavonoid release profile from coated surfaces in water media, simulating physiologic conditions (pH 7.5, 37° C.) was measured by UV-Vis spectroscopy. Implants were placed in a 96 well plate and 200 μl of water at pH 7.5 were added to each well. […] Each time, a 150 μl aliquot was withdrawn and the absorbance (λTaxifolin=290 nm, λQuercitrin=350 nm) was measured in a 96 well Elisa plate using a Biotek UV-vis plate reader spectrophotometer. The concentration of flavonoid was calculated from interpolation of data in flavonoid standard calibration curves. Two replicates were measured for each sample. Passivated Ti substrates were used as blank samples for drop casted implants. Silanized Ti substrates were used as blank for covalently linked samples."}, "[2]": {"test": "Flavonoid release profile by UV-Vis spectroscopy, simulating hUC-MSCs culture media changes", "conditions": "water pH 7.5, 37° C.", "procedure": "as §1"}, "[3]": {"test": "Biomolecule release by UV-vis spectrometry after 24 h incubation in water", "conditions": "covalent linking via APTES, water pH 7.5, 37° C.", "procedure": "The biomolecule release from functionalized implants after 24 h incubation in water at pH 7.5 and 37° C. was determined by UV-Vis spectroscopy. Implants were placed in a 96 well plate and 200 μl of water at pH 7.5 were added to each well. Samples were incubated at 37° C. during 24 h. Then, a 150 μl aliquot was withdrawn and the absorbance (λmax taxifolin=290 nm, λmax quercitrin=350 nm) was measured using a Biotek UV-vis plate reader spectrophotometer. Two sample replicates were measured."}, "[4]": {"conditions": "Schiff base, not reduced (experiment FL14)"}},
  "data": [
    {"molecule": "O=C1c2c(O)cc(O)cc2O[C@H](c2ccc(O)c(O)c2)[C@H]1O", "note": "[TX, taxifolin]", "values": [
      {"measurement": "cumulative release at day one", "setting": "[1]; [4]", "result": "12.4 ± 4.0", "unit": "nmol"},
      {"measurement": "released amount from 1 to 14 days", "setting": "[1]; [4]", "result": "not significant"},
      {"measurement": "flavonoid released to the media after 1 h of incubation", "setting": "[1]; covalently linked by Schiff base formation, not reduced (experiment FL14)", "result": "7.9 ± 2.7", "unit": "nmol"},
      {"measurement": "completeness of release at day 1", "setting": "[1]; drop casted substrates (experiment FL13), 6 nmol/disk taxifolin", "result": "almost complete"},
      {"measurement": "flavonoid released to the media after 1 h of incubation", "setting": "[1]; drop casted substrates (experiment FL13), initial 6 nmol/disk taxifolin, 100 nmol/disk quercitrin", "result": "~3.2 ± 0.4", "unit": "nmol"},
      {"measurement": "flavonoid detected in the media", "setting": "[1]; reduced Schiff base surfaces (experiment FL15), up to 14 days", "result": "No taxifolin neither quercitrin were detected"},
      {"measurement": "total amount released after 14 days", "setting": "[2]; Schiff base, not reduced (experiment FL17)", "result": "2.6 ± 0.2", "unit": "nmol"},
      {"measurement": "total amount released to media", "setting": "[2]; drop casted substrates (experiment FL16), initial 20 nmol/disk taxifolin, 50 nmol/disk quercitrin, up to 14 days", "result": "19.7 ± 0.7", "unit": "nmol"},
      {"measurement": "flavonoid detected in the media", "setting": "[2]; reduced Schiff base surfaces (experiment FL18), up to 14 days", "result": "No taxifolin neither quercitrin were detected"},
      {"measurement": "C μM, 24 h (release of flavonoid to water media)", "setting": "[3]; Ti pretreat. UV, reduction step No (Schiff base)", "result": "5.06 ± 0.59", "unit": "µM"},
      {"measurement": "C μM, 24 h (release of flavonoid to water media)", "setting": "[3]; Ti pretreat. UV, reduction step Yes (reduced Schiff base)", "result": "No det."},
      {"measurement": "C μM, 24 h (release of flavonoid to water media)", "setting": "[3]; Ti pretreat. passivation, reduction step No (Schiff base)", "result": "10.22 ± 1.88", "unit": "µM"},
      {"measurement": "C μM, 24 h (release of flavonoid to water media)", "setting": "[3]; Ti pretreat. passivation, reduction step Yes (reduced Schiff base)", "result": "No det."}
    ]}
  ]
}
